Assay results as given in patent publication US8008283B2, “Methods and compositions for the treatment of neuropsychiatric disorders” (Neurotherapeutics Pharma, Inc., priority 2005, dated 2011).

System: urethane-anesthetized rats
Test: kainic acid-evoked electrical status epilepticus in urethane-anesthetized rats (Example 70)
Assay type: in vivo, rat
Experimental: Body temperature was monitored using a rectal temperature probe and maintained at 35-37° C. with a heating pad; heart rate (EKG) was continuously monitored. The jugular vein was cannulated on one side for intravenous drug administration. Rats were placed in a Kopf stereotaxic device (with the top of the skull level), and a bipolar stainless-steel microelectrode insulated to 0.5 mm of the tip was inserted to a depth of 0.5-1.2 mm from the cortical surface to record electroencephalographic (EEG) activity in the fronto-parietal cortex. In some experiments, a 2M NaCl-containing pipette was lowered to a depth of 2.5-3.0 mm to record hippocampal EEG. Data were stored on VHS videotape and analyzed off-line.
Following the surgical preparation and electrode placement, animals were allowed to recover for 30 minutes before the experiments were initiated with an injection of kainic acid (10-12 mg/kg i.v.). […] Experiments were terminated with the intravenous administration of urethane. Animal care was in accordance with NIH guidelines and approved by the University of Washington Animal Care Committee.

NS(=O)(=O)c1cc(C(=O)O)c(NCc2ccco2)cc1Cl [furosemide]
cortical activity (90 minutes after the furosemide injection): remained near normal baseline levels | latency of block of seizure activity (intravenous furosemide, cumulative dose 40-60 mg/kg): 30 to 45 min | seizure activity (EEG) (intravenous furosemide, cumulative dose 40-60 mg/kg, kainic acid 10-12 mg/kg i.v.): blocked
